Test results: US9868977B2, “Red-shifted luciferins and methods of using same” (PROMEGA CORPORATION, priority 2013, dated 2018)

Legend:
Format in all cases: biochemical
Leu-aminopeptidase = assay: Titration of Leu-aminopeptidase with pro-substrate and luciferin detection reagent; settings: pro-substrate 20, 2 or 0.2 uM; Leu-aminopeptidase serially diluted; luminescence every 5 min for 90 min
Procedure: To a lyophilized vial of luciferin detection reagent (Promega; V859A), 10 ml of a solution of 100 mM HEPES pH 7.5/10 mM MgSO4 was added and allowed to equilibrate for 30 minutes at room temperature.
A 20 uM solution of Leu-luciferin and a 20 uM solution of PBI-5044 were prepared in a solution of 100 mM HEPES/0.1% Prionex. The 20 uM solution of PBI-5044 was then serially diluted in the HEPES/Prionex solution to 2 uM and 0.2 uM solutions.
1 U/ml Leu-aminopeptidase (Sigma) was serially diluted (FIG. 1) into each of the luciferin dilutions (20 uM Leu-luciferin, 20 uM PBI-5044, 2 uM PBI-5044 or 0.2 uM PBI-5044). For example, 50 ul 1 U/ml Leu-aminopeptidase was added to 450 ul luciferin dilution (final concentration of Leu-aminopeptidase was 0.1 U/ml). Leu-aminopeptidase was then serially diluted by adding 150 ul Leu-aminopeptidase solution to 350 ul of each prepared luciferin derivative.
In triplicate, 50 ul of each serially diluted Leu-aminopeptidase/luciferin sample was added to a well of a white, 96-well assay plate (Costar 3355), and 50 ul of the equilibrated luciferin detection reagent added to each sample. Luminescence was detected every 5 minutes for 90 minutes on a GloMax® Multi luminometer (Promega) at room temperature.

Aminopeptidase = assay: Multiplexing of Leu-luciferin and PBI-5044 with filtered luminescence; settings: 20 uM Leu-Luciferin/20 uM PBI-5044; 630 long pass and 525 short pass filters
Procedure: To a lyophilized vial of luciferin detection reagent (Promega; V859A), 10 ml of a solution of 100 mM HEPES pH 7.5/10 mM MgSO4 was added (LDR) and allowed to equilibrate for 30 minutes at room temperature.
Aminopeptidase was diluted to 0.01 u/ml into a solution containing 100 mM HEPES pH 7.5 and 0.1% Prionex. The following solutions were then prepared in the aminopeptidase dilution: • 1. 20 uM Leu-Luciferin, • 2. 20 uM PBI-5044, • 3. 20 uM Leu-Luciferin/20 uM PBI-5044
In triplicate, 50 ul of each of the above mixtures (1-3) was added to 50 ul of LDR and incubate for 15 minutes. Luminescence was measured on a GloMax® 96 luminometer equipped with a 630 long pass filter (Edmond Optics 253253) and a 525 short pass filter (Edmond Optics 84694).

esterase = assay: Effect of esterase on bioluminescence of ester pro-substrate; settings: serial dilutions; luciferin detection reagent with esterase, with or without UltraGlo luciferase
Procedure: Reconstitution buffer with esterase (10 ml; Promega Cat. No. V144A) and luciferin detection reagent (Promega; V859A) were mixed and incubated at room temperature for 30 minutes (“Luciferin Detection Reagent”). UltraGlo® luciferase (210 ul of 5.7 mg/ml; Promega) was then added to 3 mls of the luciferin detection reagent.
Serial dilutions of PBI-5045 (isonaphtholuciferin methyl ester) were made in a solution of 100 mM HEPES/10 mM MgSO4. 50 ul of each serially diluted PBI-5045 was then added to a well of a white, 96-well assay plate (n=6). Then, either 50 ul luciferin detection reagent or luciferin detection reagent with UltraGlo® luciferase was added to the wells. Luminescence was detected on a GloMax® Multi+ luminometer (Promega).
FIGS. 4A and 4B show the effects of esterase on PBI-5045.

Row | Structure (SMILES) | bioluminescent response as a function of added aminopeptidase (reporting protease activity) (Leu-aminopeptidase) | separation of bioluminescence from luciferin by filters (multiplexing) (Aminopeptidase) | luminescence in presence of esterase (reporting esterase activity) (esterase)
1 | CC(C)C[C@H](N)C(=O)Nc1ccc2c(ccc3nc(C4=NC(C(=O)O)CS4)sc32)c1 (stereo partly drawn) [PBI-5044, 2-(7-(Leucinyl)aminonaphtho[2,1-d]thiazol-2-yl)-4,5-dihydrothiazole-4-carboxylic acid] | successful use in reporting protease activity | luminescence from each detected with little interference from the other | –
2 | COC(=O)C1CSC(c2nc3ccc4cc(O)ccc4c3s2)=N1 (stereo not drawn) [PBI-5045, 2-(7-Hydroxynaphtho[2,1-d]thiazol-2-yl)-4,5-dihydrothiazole-4-carboxylic acid methyl ester] | – | – | successful use in reporting esterase activity
